Values joined by “and” are separate entries in the source; they are usually repeats but may differ in a detail not shown here. Equal entries are not always repeated. Toxic doses and inconclusive results are not listed.
Test system: CD2F1 mice, L1210 leukemia ip, survival T/C
Assay: NCI In Vivo Anticancer Drug Screen. Data for tumor model L1210 Leukemia (intraperitoneal) in CD2F1 (CDF1) mice
Conditions: higher = longer survival
Procedure, shortened: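 Activity against a transplanted murine tumor was judged by comparing the compound group with a vehicle group. The outcome in the treated animals was divided by that in the controls.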

[1] = endpoint: mean survival time, dose: 7.5 mg/kg/injection, schedule: Q01DX009 (ip), vehicle: saline
[2] = endpoint: mean survival time, dose: 30.0 mg/kg/injection, schedule: Q01DX009 (ip), vehicle: saline

## OC(CI)C(O)C(O)C(O)CI (stereo not given)
endpoint: mean survival time, dose: 25.0 mg/kg/injection, schedule: Q01DX009 (oral), vehicle: other
  T/C: 106 % of control
endpoint: mean survival time, dose: 50.0 mg/kg/injection, schedule: Q01DX009 (oral), vehicle: other
  T/C: 106 % of control
endpoint: mean survival time, dose: 100.0 mg/kg/injection, schedule: Q01DX009 (oral), vehicle: other
  T/C: 95 % of control
endpoint: mean survival time, dose: 200.0 mg/kg/injection, schedule: Q01DX009 (oral), vehicle: other
  T/C: 107 % of control
endpoint: mean survival time, dose: 400.0 mg/kg/injection, schedule: Q01DX009 (oral), vehicle: other
  T/C: 107 % of control
endpoint: mean survival time, dose: 800.0 mg/kg/injection, schedule: Q01DX009 (oral), vehicle: other
  T/C: 124 % of control

## O=C1C=C(c2ccccc2)C/C1=C\c1ccccc1
endpoint: mean survival time, dose: 100.0 mg/kg/injection, schedule: Q01DX001 (ip), vehicle: saline with Tween-80
  T/C: 87 % of control
endpoint: mean survival time, dose: 200.0 mg/kg/injection, schedule: Q01DX001 (ip), vehicle: saline with Tween-80
  T/C: 87 % of control

## COC1=C(Br)C(O)C2(C=C1Br)CC(C(=O)NCCCCNC(=O)C1=NOC3(C=C(Br)C(OC)=C(Br)C3O)C1)=NO2 (stereo not given)
endpoint: mean survival time, dose: 50.0 mg/kg/injection, schedule: Q04DX002 (ip), vehicle: saline with Tween-80
  T/C: 94 % of control
endpoint: mean survival time, dose: 100.0 mg/kg/injection, schedule: Q04DX002 (ip), vehicle: saline with Tween-80
  T/C: 94 % of control
endpoint: mean survival time, dose: 200.0 mg/kg/injection, schedule: Q04DX002 (ip), vehicle: saline with Tween-80
  T/C: 97 % of control
endpoint: mean survival time, dose: 400.0 mg/kg/injection, schedule: Q04DX002 (ip), vehicle: saline with Tween-80
  T/C: 86 % of control

## OCC1OC(n2cnc3c([Se]Cc4ccccn4)ncnc32)C(O)C1O (stereo not given)
endpoint: mean survival time, dose: 3.12 mg/kg/injection, schedule: Q01DX009 (ip), vehicle: saline
  T/C: 102 % of control
endpoint: mean survival time, dose: 6.25 mg/kg/injection, schedule: Q01DX009 (ip), vehicle: saline
  T/C: 113 % of control
endpoint: mean survival time, dose: 12.5 mg/kg/injection, schedule: Q01DX005 (ip), vehicle: saline
  T/C: 100 % of control
endpoint: mean survival time, dose: 12.5 mg/kg/injection, schedule: Q01DX009 (ip), vehicle: saline
  T/C: 111 % of control

## COC(=O)CC[S+](C)CCC(=O)OC
[1]
  T/C: 94 % of control
endpoint: mean survival time, dose: 15.0 mg/kg/injection, schedule: Q01DX009 (ip), vehicle: saline
  T/C: 98 % of control
[2]
  T/C: 90 % of control

## Cc1cc2c(=O)cc(-c3ccccc3)oc2c(C(=O)O)c1C
endpoint: median survival time, dose: 31.75 mg/kg/injection, schedule: Q01DX005 (ip), vehicle: saline with Tween-80
  T/C: 109 % of control
endpoint: median survival time, dose: 62.5 mg/kg/injection, schedule: Q01DX005 (ip), vehicle: saline with Tween-80
  T/C: 106 % of control
endpoint: median survival time, dose: 125.0 mg/kg/injection, schedule: Q01DX005 (ip), vehicle: saline with Tween-80
  T/C: 104 % of control
endpoint: median survival time, dose: 250.0 mg/kg/injection, schedule: Q01DX005 (ip), vehicle: saline with Tween-80
  T/C: 102 % of control

## O=Cc1c2ccc(Cl)cc2nc2cc(Cl)ccc12
endpoint: mean survival time, dose: 100.0 mg/kg/injection, schedule: Q04DX003 (ip), vehicle: saline with Tween-80
  T/C: 112 % of control
endpoint: mean survival time, dose: 200.0 mg/kg/injection, schedule: Q04DX003 (ip), vehicle: saline with Tween-80
  T/C: 93 % of control
endpoint: mean survival time, dose: 400.0 mg/kg/injection, schedule: Q04DX003 (ip), vehicle: saline with Tween-80
  T/C: 102 % of control

## CCCCCCCCCCC(=O)N1CCOCC1
endpoint: mean survival time, dose: 50.0 mg/kg/injection, schedule: Q01DX009 (ip), vehicle: saline with Tween-80
  T/C: 87 % of control
endpoint: mean survival time, dose: 100.0 mg/kg/injection, schedule: Q01DX009 (ip), vehicle: saline with Tween-80
  T/C: 96 % of control

## COc1cccc(C2Nc3cc(Cl)ccc3S2)c1O (stereo not given)
endpoint: mean survival time, dose: 75.0 mg/kg/injection, schedule: Q01DX009 (ip), vehicle: other
  T/C: 98 % of control
endpoint: mean survival time, dose: 150.0 mg/kg/injection, schedule: Q01DX009 (ip), vehicle: other
  T/C: 96 % of control
endpoint: mean survival time, dose: 300.0 mg/kg/injection, schedule: Q01DX009 (ip), vehicle: other
  T/C: 102 % of control

## C=CC(CN1CC1)OC(C)=O (stereo not given)
endpoint: mean survival time, dose: 2.5 mg/kg/injection, schedule: Q03DX003 (ip), vehicle: saline
  T/C: 107 % of control
endpoint: mean survival time, dose: 2.5 mg/kg/injection, schedule: Q04DX003 (ip), vehicle: saline
  T/C: 100 % of control
endpoint: mean survival time, dose: 3.75 mg/kg/injection, schedule: Q01DX009 (ip), vehicle: saline
  T/C: 159 % of control
endpoint: mean survival time, dose: 5.0 mg/kg/injection, schedule: Q01DX007 (ip), vehicle: saline
  T/C: 172 % of control
endpoint: mean survival time, dose: 5.0 mg/kg/injection, schedule: Q01DX009 (ip), vehicle: saline
  T/C: 160 % of control
endpoint: mean survival time, dose: 5.0 mg/kg/injection, schedule: Q03DX003 (ip), vehicle: saline
  T/C: 121 % of control
endpoint: mean survival time, dose: 5.0 mg/kg/injection, schedule: Q04DX003 (ip), vehicle: saline
  T/C: 111 % of control
[1]
  T/C: 206 % of control and 249 % of control
endpoint: mean survival time, dose: 10.0 mg/kg/injection, schedule: Q04DX003 (ip), vehicle: saline
  T/C: 153 % of control
[2]
  T/C: 91 % of control

## CCOC(=O)c1cc(Cl)cc(Cl)c1N=NN(C)C
endpoint: mean survival time, dose: 25.0 mg/kg/injection, schedule: Q01DX009 (ip), vehicle: saline
  T/C: 93 % of control
endpoint: mean survival time, dose: 50.0 mg/kg/injection, schedule: Q01DX009 (ip), vehicle: saline
  T/C: 93 % of control
endpoint: mean survival time, dose: 100.0 mg/kg/injection, schedule: Q01DX009 (ip), vehicle: saline
  T/C: 100 % of control
endpoint: mean survival time, dose: 200.0 mg/kg/injection, schedule: Q01DX009 (ip), vehicle: saline
  T/C: 97 % of control

Source: PubChem BioAssay AID256 (DTP/NCI, 2004)
